Laboratory results taken from patent publication US10118930B2, “Piperidinylpyrazolopyrimidinones and their use” (BAYER PHARMA AKTIENGESELLSCHAFT, priority 2015, dated 2018).
Where a name gives a salt, the structure may show the parent alone.

system: clot lysis (fibrinolysis) in diluted human citrated plasma, tPA-induced; assay: Plasma-based clot lysis assay (5%); format: biochemical; details: human citrated platelet-poor plasma 5%, fibrinogen 3 μM, CaCl2 10 mM, tPA 0.2 nM, 37° C., OD at 405 nm
Summary of the method: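 Clot formation and breakdown triggered by CaCl2 (10 mM final) plus tPA (0.2 nM final) at 37° C, in 5% diluted human plasma supplemented with 3 μM fibrinogen (HEPES/NaCl/Brij buffer, pH 7). IC50 obtained from time courses relative to a blank control.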

Compound | IC50 [nM]
COc1c(F)cc(Cc2nnc(-c3cnn4c(C5CCNCC5)cc(=O)[nH]c34)o2)cc1F [Example 444, 3-[5-(3,5-difluoro-4-methoxybenzyl)-1,3,4-oxadiazol-2-yl]-7-(piperidin-4-yl)pyrazolo[1,5-a]pyrimidin-5(4H)-one hydrochloride] | 17
Cc1nn2c(C3CCNCC3)cc(=O)[nH]c2c1-c1nnc(-c2ccccc2F)o1 [Example 445, 3-[5-(2-fluorophenyl)-1,3,4-oxadiazol-2-yl]-2-methyl-7-(piperidin-4-yl)pyrazolo[1,5-a]pyrimidin-5(4H)-one hydrochloride] | 56
Cc1nn2c(C3CCNCC3)cc(=O)[nH]c2c1-c1nc(Cc2ccc(O)cc2)no1 [Example 446, 3-[3-(4-hydroxybenzyl)-1,2,4-oxadiazol-5-yl]-2-methyl-7-(piperidin-4-yl)pyrazolo[1,5-a]pyrimidin-5(4H)-one hydrochloride] | 10
COc1ccc(Cc2nnc(-c3cnn4c(C5CCNCC5)cc(=O)[nH]c34)o2)cc1F [Example 447, 3-[5-(3-fluoro-4-methoxybenzyl)-1,3,4-oxadiazol-2-yl]-7-(piperidin-4-yl)pyrazolo[1,5-a]pyrimidin-5(4H)-one hydrochloride] | 14
C=C(C)c1cnn2c(C3CCNCC3)cc(=O)[nH]c12 [Example 449, 7-(piperidin-4-yl)-3-(prop-1-en-2-yl)pyrazolo[1,5-a]pyrimidin-5 (4H)-one hydrochloride] | 55
O=C(c1cnn2c(C3CCNCC3)cc(=O)[nH]c12)C1CCCC1 [Example 451, 3-(cyclopentylcarbonyl)-7-(piperidin-4-yl)pyrazolo[1,5-a]pyrimidin-5(4H)-one hydrochloride] | 11
CCC(C)C(=O)c1cnn2c(C3CCNCC3)cc(=O)[nH]c12 (stereo not drawn) [Example 452, 3-(2-methylbutanoyl)-7-(piperidin-4-yl)pyrazolo[1,5-a]pyrimidin-5 (4H)-one hydrochloride] | 8
O=C(c1cnn2c(C3CCNCC3)cc(=O)[nH]c12)C1CC1 [Example 453, 3-(cyclopropylcarbonyl)-7-(piperidin-4-yl)pyrazolo[1,5-a]pyrimidin-5(4H)-one hydrochloride] | 8
COC(=O)c1c(C(F)(F)F)nn2c(C3CCNCC3)cc(=O)[nH]c12 [Example 454, Methyl 5-oxo-7-(piperidin-4-yl)-2-(trifluoromethyl)-4,5-dihydropyrazolo[1,5-a]pyrimidine-3-carboxylate hydrochloride] | 34
CCOC(=O)c1c(SC)nn2c(C3CCNCC3)cc(=O)[nH]c12 [Example 455, Ethyl 2-(methylsulfanyl)-5-oxo-7-(piperidin-4-yl)-4,5-dihydropyrazolo[1,5-a]pyrimidine-3-carboxylate hydrochloride] | 36
CC(C)(C)C(=O)c1cnn2c(C3CCNCC3)cc(=O)[nH]c12 [Example 456, 3-(2,2-dimethylpropanoyl)-7-(piperidin-4-yl)pyrazolo[1,5-a]pyrimidin-5(4H)-one hydrochloride] | 39
O=C(O)c1c(C(F)(F)F)nn2c(C3CCNCC3)cc(=O)[nH]c12 [Example 457, 5-oxo-7-(piperidin-4-yl)-2-(trifluoromethyl)-4,5-dihydropyrazolo[1,5-a]pyrimidine-3-carboxylic acid hydrochloride] | 85
CCOC(=O)c1c(C(F)(F)F)nn2c(C3CCNCC3)cc(=O)[nH]c12 [Example 458, Ethyl 5-oxo-7-(piperidin-4-yl)-2-(trifluoromethyl)-4,5-dihydropyrazolo[1,5-a]pyrimidine-3-carboxylate hydrochloride] | 130
CCCOC(=O)c1c(C(F)(F)F)nn2c(C3CCNCC3)cc(=O)[nH]c12 [Example 459, Propyl 5-oxo-7-(piperidin-4-yl)-2-(trifluoromethyl)-4,5-dihydropyrazolo[1,5-a]pyrimidine-3-carboxylate hydrochloride] | 83
CC(C)OC(=O)c1c(C(F)(F)F)nn2c(C3CCNCC3)cc(=O)[nH]c12 [Example 460, Propan-2-yl 5-oxo-7-(piperidin-4-yl)-2-(trifluoromethyl)-4,5-dihydropyrazolo[1,5-a]pyrimidine-3-carboxylate hydrochloride] | 59
Cc1nn2c(C3CCNCC3)cc(=O)[nH]c2c1C(=O)OCC(C)(F)F [Example 461, 2,2-difluoropropyl 2-methyl-5-oxo-7-(piperidin-4-yl)-4,5-dihydropyrazolo[1,5-a]pyrimidine-3-carboxylate hydrochloride] | 61
CC1(C)CCN(C(=O)c2cnn3c(C4CCNCC4)cc(=O)[nH]c23)C1 [Example 462, 3-[(3,3-dimethylpyrrolidin-1-yl)carbonyl]-7-(piperidin-4-yl)pyrazolo[1,5-a]pyrimidin-5 (4H)-one hydrochloride] | 34
CC(F)(F)COC(=O)c1cnn2c(C3CCNCC3)cc(=O)[nH]c12 [Example 463, 2,2-difluoropropyl 5-oxo-7-(piperidin-4-yl)-4,5-dihydropyrazolo[1,5-a]pyrimidine-3-carboxylate hydrochloride] | 51
Cc1nn2c(C3CCNCC3)cc(=O)[nH]c2c1C(=O)OCCCF [Example 464, 3-fluoropropyl 2-methyl-5-oxo-7-(piperidin-4-yl)-4,5-dihydropyrazolo[1,5-a]pyrimidine-3-carboxylate hydrochloride] | 130
Cc1nn2c(C3CCNCC3)cc(=O)[nH]c2c1C(=O)OCC(F)F [Example 465, 2,2-difluoroethyl 2-methyl-5-oxo-7-(piperidin-4-yl)-4,5-dihydropyrazolo[1,5-a]pyrimidine-3-carboxylate hydrochloride] | 40
Cc1nn2c(C3CCNCC3)cc(=O)[nH]c2c1C(=O)OCCC(F)(F)F [Example 466, 3,3,3-trifluoropropyl 2-methyl-5-oxo-7-(piperidin-4-yl)-4,5-dihydropyrazolo[1,5-a]pyrimidine-3-carboxylate hydrochloride] | 85
Cc1nn2c(C3CCNCC3)cc(=O)[nH]c2c1C(=O)OC(C)(C)C [Example 468, Tert-butyl 2-methyl-5-oxo-7-(piperidin-4-yl)-4,5-dihydropyrazolo[1,5-a]pyrimidine-3-carboxylate hydrochloride] | 39
CSc1nn2c(C3CCNCC3)cc(=O)[nH]c2c1C(=O)O [Example 469, 2-(methylsulfanyl)-5-oxo-7-(piperidin-4-yl)-4,5-dihydropyrazolo[1,5-a]pyrimidine-3-carboxylic acid hydrochloride] | 160

same assay, conditions: human citrated platelet-poor plasma 5%, fibrinogen 3 μM, CaCl2 10 mM, tPA 0.2 nM, 37° C., OD at 405 nm; acetate

Compound | IC50 [nM]
Cc1ccccc1-c1csc(-c2cnn3c(C4CCNCC4)cc(=O)[nH]c23)n1 [Example 448, 3-[4-(2-methylphenyl)-1,3-thiazol-2-yl]-7-(piperidin-4-yl)pyrazolo[1,5-a]pyrimidin-5(4H)-one acetate] | 30
